Data as given in patent US20170151299A1, “EXTRACTS OF SANTOLINA CHAMAECYPARISSUS” (priority 2014, published 2017).
Values after ≈ are worked out from the molar mass of the structure shown. Read-outs that look alike come from different tables or passages of the source.

Assays:
Aspergillus niger = assay: 96-well microtiter plate growth inhibition assay; format: cell-based; conditions: for inhibition at 200000 µg/mL (stock): 200 mg/mL sample at 2% in well (positive standard 0.4%)
Procedure: (§1) Antimicrobial activity of the crude extracts was determined using a 96-well microtiter plate assay based on growth inhibition. The assay was performed on […] different microbial strains, chosen according to the European Pharmacopoeia (ATCC references): Staphylococcus aureus ([…]), Escherichia coli (gram-negative bacteria), Pseudomonas aeruginosa ([…]), Propionibacterium acnes (anaerobic gram-positive bacteria), Aspergillus niger (fungus) and Candida albicans (yeast).
(§2) Samples for antimicrobial assay were prepared as follows: crude extracts were diluted at 200 mg/mL in a mixture of appropriate solvents, e.g. ethanol and water (60:40 v/v) or pure dimethylsulfoxide. After solubilization, the solutions were filtrated on 0.45 μm syringe filters.
(§3) The assay was performed for each strain according as follows: samples (at 200 mg/mL) were first diluted to 4% in water, then to 2% and 0.2% in wells. Final concentrations were also 0.4 and 0.04% of crude extracts in wells. Each concentration was assessed in replicate with one supplementary control well containing no microbial strain. For the assay at 2%, samples were mixed up in the wells with growth medium (95 μL) and microbial suspension (representing an absorbance of 0.6 for C. albicans, S. aureus and P. aeruginosa and 40 spores/μL for A. niger). For the assay at 0.2%, samples were first diluted to 0.2% with water in the wells. Negative controls constituted of the solvent mixture used to prepare the sample solutions, and positive controls with a synthetic preservative (methyl-paraben and/or phenoxyethanol, positive standard) were also prepared. Results were also compared with those obtained using a commercial natural preservative (commercial preservative). The 96-well plates were incubated at 25° C.
(§4) The absorbance was read for each plate at 620 nm 24, 48 and 72 hours after the beginning of the incubation to evaluate the growth of each microorganism in presence of crude extracts.
(§5) The results were expressed as a percentage of growth inhibition by the samples for each microorganism.

Candida albicans = assay: 96-well microtiter plate growth inhibition assay; format: cell-based; conditions: for inhibition: 200 mg/mL sample at 2% in well (positive standard 0.4%)
Procedure: as §1, §2, §3, §4, §5

Pseudomonas aeruginosa = assay: 96-well microtiter plate growth inhibition assay; format: cell-based; conditions: for inhibition: 200 mg/mL sample at 2% in well (positive standard 0.4%)
Procedure: as §1, §2, §3, §4, §5

Staphylococcus aureus = assay: 96-well microtiter plate growth inhibition assay; format: cell-based; conditions: for inhibition at 200000 µg/mL (stock): 200 mg/mL sample at 2% in well (positive standard 0.4%)
Procedure: as §1, §2, §3, §4, §5

Propionibacterium acnes = assay: Minimum inhibitory concentration (MIC); format: cell-based; conditions: Cutibacterium acnes; Propionibacterium acnes (anaerobic); read-out: MIC (mg/mL) P. acnes
Procedure: In a second step for the optimized extract of S. chamaecyparissus, the minimum inhibitory concentration (MIC) and the minimum bactericidal concentration (MBC) were also measured including E. coli and P. acnes. […] The MBC is the lowest concentration of antibacterial agent required to kill a particular bacterium, that is to say to reduce the viability of the initial bacterial inoculum by >99.9%. The dilutions were run in triplicate for the MIC and MBC test. At the end of the incubation, the tubes were read for the growth inhibition and then the MBC was determined by sampling all the macroscopically clear tubes and the first turbid tube in the series.
The results were expressed in mg/mL of extract.
The optimized extract was then assessed for its antimicrobial activity and more particularly in order to determine the minimum inhibitory concentration for Propionibacterium acnes (gram-positive bacteria). Methyl paraben and phenoxyethanol, as universal antimicrobial agents, were used as positive control. Due to the a higher active substance (I) content, the impact on the antimicrobial activity and more particularly on an anaerobic bacteria was evaluated.

[1] = format: physicochemical
Procedure: The pure compound appeared to be unstable once isolated, and particularly in aqueous and acid conditions. Since antimicrobial assays were performed in water, its antimicrobial activity could not be evaluated as for crude extracts or plant fractions. Thus, the inventors tried to establish a relationship between antimicrobial activity and active substance content in crude extracts.

[2] = 48 h, read-out: Growth inhibition (%) 48 h, 2%
[3] = 72 h, read-out: Growth inhibition (%) 72 h, 2%
[4] = medium inhibition at 2%, Table 2
[5] = 24 h, read-out: Growth inhibition (%) 24 h, 2%

| MIC (Propionibacterium acnes) [mg/mL] | stability once isolated [1] | Compound | inhibition at 200000 µg/mL (stock) (Aspergillus niger; [2]) [%] | inhibition at 200000 µg/mL (stock) (Aspergillus niger; [3]) [%] | Review (Aspergillus niger; [4]) | inhibition (Candida albicans; [5]) [%] | inhibition (Candida albicans; [2]) [%] | Review (Candida albicans; [4]) | inhibition (Pseudomonas aeruginosa; [2]) [%] | inhibition (Pseudomonas aeruginosa; [3]) [%] | Review (Pseudomonas aeruginosa; [4]) | inhibition at 200000 µg/mL (stock) (Staphylococcus aureus; [5]) [%] | inhibition at 200000 µg/mL (stock) (Staphylococcus aureus; [2]) [%] | Review (Staphylococcus aureus; [4]) |
| --- | --- | --- | --- | --- | --- | --- | --- | --- | --- | --- | --- | --- | --- | --- |
| 2.53 (≈ 16.6 mM) | – | COC(=O)c1ccc(O)cc1 [Positive standard, Methylparaben] | 100 | 100 | +++ (medium inhibition greater or equal to 90%) | 99 | 100 | +++ (medium inhibition greater or equal to 90%) | 75 | 81 | ++ (medium inhibition comprised between 70% and 90%) | 80 | 93 | ++ (medium inhibition comprised between 70% and 90%) |
| – | unstable | CC#CC#C/C=C1/C=CC2(OC=CC2OC(C)=O)O1 (centres unmarked) [pure compound, 1,6-dioxaspiro[4,4]nona-2,8-dien-4-ol,7-(2,4-hexadiyn-1-ylidene)-,4-acetate] | – | – | – | – | – | – | – | – | – | – | – | – |
